The test system of the assay is PC3 cells. Briefly: NAMPT Cell Proliferation Assay. It is filed as cell-based. The note with it: Homo sapiens, PC-3, 120 h, 5 days incubation, cell viability by Cell Titer Glo. The procedure:
NAMPT Cell Proliferation Assay
PC3 cells were seeded in 96-well black plates (Corning #3904) at 500 cells)Owell in 90 µl of RPMI media containing 10% heat-inactivated FBS and incubated overnight at 37° C. and 5% CO2 to allow cells to attach to wells. The following day, test compounds were serially diluted in neat DMSO to 1000× final concentrations prior to dilution with RPMI media to 10× and 1% DMSO. […] of the 10× compounds were then transferred to wells containing cells to produce a dose response of 10-fold dilutions from […] to 1×10^−[…]. Cells were incubated for 5 days at 37° C. and 5% CO2, then cell viability was measured using Cell Titer Glo reagent (Promega #G7571). Percent inhibition values were calculated and fitted to a sigmoidal dose response curves using Assay Explorer software to determine IC50s.

`CCC(=O)N1CCC(Oc2ccc(NC(=O)C3CN(c4cccnc4)C3)cc2)CC1` [Example 65, N-{4-[(1-propanoylpiperidin-4-yl)oxy]phenyl}-1-(pyridin-3-yl)azetidine-3-carboxamide] registered a 50% inhibitory concentration (IC50) of 6.38 nM.
For `CC1(C(=O)N2CCC(Oc3ccc(NC(=O)C4CN(c5cccnc5)C4)cc3)CC2)CC1` [Example 66, N-[4-({1-[(1-methylcyclopropyl)carbonyl]piperidin-4-yl}oxy)phenyl]-1-(pyridin-3-yl)azetidine-3-carboxamide], the IC50 is 5.81 nM.
`CN(C)CCC(=O)N1CCC(Oc2ccc(NC(=O)C3CN(c4cccnc4)C3)cc2)CC1` [Example 67, N-(4-{[1-(N,N-dimethyl-beta-alanyl)piperidin-4-yl]oxy}phenyl)-1-(pyridin-3-yl)azetidine-3-carboxamide] showed an IC50 of 386 nM.
The result for `O=C(Nc1ccc(OC2CCN(C(=O)c3nccs3)CC2)cc1)C1CN(c2cccnc2)C1` [Example 68, 1-(pyridin-3-yl)-N-(4-{[1-(1,3-thiazol-2-ylcarbonyl)piperidin-4-yl]oxy}phenyl)azetidine-3-carboxamide] reads 3.54 nM; that for `O=C(Nc1ccc(OC2CCN(C(=O)CC3CCCC3)CC2)cc1)C1CN(c2cccnc2)C1` [Example 69, N-(4-{[1-(cyclopentylacetyl)piperidin-4-yl]oxy}phenyl)-1-(pyridin-3-yl)azetidine-3-carboxamide], 4.22 nM; that for `CC(C)C(C)C(=O)N1CCC(Oc2ccc(NC(=O)C3CN(c4cccnc4)C3)cc2)CC1` (stereo not shown) [Example 70, N-(4-{[1-(2,3-dimethylbutanoyl)piperidin-4-yl]oxy}phenyl)-1-(pyridin-3-yl)azetidine-3-carboxamide], 3.97 nM.
As to `Cc1ncccc1N1CC(C(=O)Nc2ccc(C3CCN(C(=O)C(C)(C)O)CC3)cc2)C1` [Example 71, N-{4-[1-(2-hydroxy-2-methylpropanoyl)piperidin-4-yl]phenyl}-1-(2-methylpyridin-3-yl)azetidine-3-carboxamide], half-maximal inhibition (IC50) was put at 72.9 nM.
The result for `Cc1ccncc1N1CC(C(=O)Nc2ccc(C3CCN(C(=O)C(C)(C)O)CC3)cc2)C1` [Example 72, N-{4-[1-(2-hydroxy-2-methylpropanoyl)piperidin-4-yl]phenyl}-1-(4-methylpyridin-3-yl)azetidine-3-carboxamide] reads 5.69 nM; that for `COc1ncccc1N1CC(C(=O)Nc2ccc(C3CCN(C(=O)C(C)(C)O)CC3)cc2)C1` [Example 73, N-{4-[1-(2-hydroxy-2-methylpropanoyl)piperidin-4-yl]phenyl}-1-(2-methoxypyridin-3-yl)azetidine-3-carboxamide], 1980 nM; that for `O=C(Nc1ccc(OC2CCN(CC3CC3)CC2)cc1)C1CN(c2cccnc2)C1` [Example 74, N-(4-{[1-(cyclopropylmethyl)piperidin-4-yl]oxy}phenyl)-1-(pyridin-3-yl)azetidine-3-carboxamide], 11.4 nM.
Take `CC(C)CN1CCC(Oc2ccc(NC(=O)C3CN(c4cccnc4)C3)cc2)CC1` [Example 76, N-(4-{[1-(2-methylpropyl)piperidin-4-yl]oxy}phenyl)-1-(pyridin-3-yl)azetidine-3-carboxamide]: half-maximal inhibition (IC50) was put at 19.1 nM.
The result for `CCC(CC)CN1CCC(Oc2ccc(NC(=O)C3CN(c4cccnc4)C3)cc2)CC1` [Example 78, N-(4-{[1-(2-ethylbutyl)piperidin-4-yl]oxy}phenyl)-1-(pyridin-3-yl)azetidine-3-carboxamide] reads 21.2 nM; that for `CCC(C)CN1CCC(Oc2ccc(NC(=O)C3CN(c4cccnc4)C3)cc2)CC1` (stereo not shown) [Example 80, N-(4-{[1-(2-methylbutyl)piperidin-4-yl]oxy}phenyl)-1-(pyridin-3-yl)azetidine-3-carboxamide], 25.5 nM.
For `O=C(Nc1ccc(OC2CCN(CCC3CC3)CC2)cc1)C1CN(c2cccnc2)C1` [Example 82, N-(4-{[1-(2-cyclopropylethyl)piperidin-4-yl]oxy}phenyl)-1-(pyridin-3-yl)azetidine-3-carboxamide], the half-inhibitory concentration (IC50) is 9.55 nM.
Take `CCC(C)(C)CN1CCC(Oc2ccc(NC(=O)C3CN(c4cccnc4)C3)cc2)CC1` [Example 84, N-(4-{[1-(2,2-dimethylbutyl)piperidin-4-yl]oxy}phenyl)-1-(pyridin-3-yl)azetidine-3-carboxamide]: the IC50 stood at 38.9 nM.
In turn, `CC(C)(O)C(=O)N1CCC(c2ccc(NC(=O)C3CN(c4ccnnc4)C3)cc2)CC1` [Example 85, N-{4-[1-(2-hydroxy-2-methylpropanoyl)piperidin-4-yl]phenyl}-1-(pyridazin-4-yl)azetidine-3-carboxamide] returned a half-inhibitory concentration (IC50) of 20.5 nM.
With `O=C(Nc1ccc(C2CCN(CC3CCCCC3)CC2)cc1)C1CN(c2cccnc2)C1` [Example 86, N-{4-[1-(cyclohexylmethyl)piperidin-4-yl]phenyl}-1-(pyridin-3-yl)azetidine-3-carboxamide], the IC50 came out at 69.7 nM.
The result for `CC(C)(C)CCN1CCC(c2ccc(NC(=O)C3CN(c4cccnc4)C3)cc2)CC1` [Example 87, N-{4-[1-(3,3-dimethylbutyl)piperidin-4-yl]phenyl}-1-(pyridin-3-yl)azetidine-3-carboxamide] reads 31.7 nM.
The result for `O=C(Nc1ccc(C2CCN(CC3CCCC3)CC2)cc1)C1CN(c2cccnc2)C1` [Example 88, N-{4-[1-(cyclopentylmethyl)piperidin-4-yl]phenyl}-1-(pyridin-3-yl)azetidine-3-carboxamide] reads 66.3 nM.
The result for `CCC(C)(C)CN1CCC(c2ccc(NC(=O)C3CN(c4cccnc4)C3)cc2)CC1` [Example 89, N-{4-[1-(2,2-dimethylbutyl)piperidin-4-yl]phenyl}-1-(pyridin-3-yl)azetidine-3-carboxamide] reads 64.6 nM; that for `CCCC(C)CN1CCC(c2ccc(NC(=O)C3CN(c4cccnc4)C3)cc2)CC1` (stereo not shown) [Example 90, N-{4-[1-(2-methylpentyl)piperidin-4-yl]phenyl}-1-(pyridin-3-yl)azetidine-3-carboxamide], 60.1 nM.
On to `CCCCN1CCC(c2ccc(NC(=O)C3CN(c4cccnc4)C3)cc2)CC1` [Example 91, N-[4-(1-butylpiperidin-4-yl)phenyl]-1-(pyridin-3-yl)azetidine-3-carboxamide], for which the IC50 turned out to be 59.9 nM.
`CCC(CC)CN1CCC(c2ccc(NC(=O)C3CN(c4cccnc4)C3)cc2)CC1` [Example 92, N-{4-[1-(2-ethylbutyl)piperidin-4-yl]phenyl}-1-(pyridin-3-yl)azetidine-3-carboxamide]: the IC50 was found to be 24 nM.
`CC(C)CCN1CCC(c2ccc(NC(=O)C3CN(c4cccnc4)C3)cc2)CC1` [Example 93, N-{4-[1-(3-methylbutyl)piperidin-4-yl]phenyl}-1-(pyridin-3-yl)azetidine-3-carboxamide] registered a half-inhibitory concentration (IC50) of 58.4 nM.
`CC(C)CN1CCC(c2ccc(NC(=O)C3CN(c4cccnc4)C3)cc2)CC1` [Example 94, N-{4-[1-(2-methylpropyl)piperidin-4-yl]phenyl}-1-(pyridin-3-yl)azetidine-3-carboxamide] yielded an IC50 of 65.7 nM.
As to `CCCN1CCC(c2ccc(NC(=O)C3CN(c4cccnc4)C3)cc2)CC1` [Example 95, N-[4-(1-propylpiperidin-4-yl)phenyl]-1-(pyridin-3-yl)azetidine-3-carboxamide], the IC50 is 73.9 nM.
As for `COc1ccncc1N1CC(C(=O)Nc2ccc(C3CCN(C(=O)C(C)(C)O)CC3)cc2)C1` [Example 96, N-{4-[1-(2-hydroxy-2-methylpropanoyl)piperidin-4-yl]phenyl}-1-(4-methoxypyridin-3-yl)azetidine-3-carboxamide], half-maximal inhibition (IC50) was put at 7610 nM.
The compound `CC(C)(O)C(=O)N1CCC(c2ccc(NC(=O)C3CN(c4cnccc4C#N)C3)cc2)CC1` [Example 97, 1-(4-cyanopyridin-3-yl)-N-{4-[1-(2-hydroxy-2-methylpropanoyl)piperidin-4-yl]phenyl}azetidine-3-carboxamide] had a 50% inhibitory concentration (IC50) of 922 nM.
As to `CCCCC(=O)N1CCC(c2ccc(NC(=O)C3CN(c4cccnc4)C3)cc2)CC1` [Example 98, N-[4-(1-pentanoylpiperidin-4-yl)phenyl]-1-(pyridin-3-yl)azetidine-3-carboxamide], the IC50 came to 6.05 nM.
For the compound `CCC(C)CC(=O)N1CCC(c2ccc(NC(=O)C3CN(c4cccnc4)C3)cc2)CC1` (stereo not shown) [Example 99, N-{4-[1-(3-methylpentanoyl)piperidin-4-yl]phenyl}-1-(pyridin-3-yl)azetidine-3-carboxamide], the half-maximal inhibitory concentration (IC50) was found to be 5.72 nM.
Compound `O=C(Nc1ccc(C2CCN(C(=O)CC3C[C@@H]4CC[C@H]3C4)CC2)cc1)C1CN(c2cccnc2)C1` (stereo partly drawn) [Example 100, N-(4-{1-[(1S,4R)-bicyclo[2.2.1]hept-2-ylacetyl]piperidin-4-yl}phenyl)-1-(pyridin-3-yl)azetidine-3-carboxamide] displayed a concentration for half-maximal inhibition (IC50) of 6.13 nM.
Compound `O=C(Nc1ccc(C2CCN(C(=O)CC3CCCC3)CC2)cc1)C1CN(c2cccnc2)C1` [Example 101, N-{4-[1-(cyclopentylacetyl)piperidin-4-yl]phenyl}-1-(pyridin-3-yl)azetidine-3-carboxamide] gave an IC50 of 0.31 nM.
`CC1CC1C(=O)N1CCC(c2ccc(NC(=O)C3CN(c4cccnc4)C3)cc2)CC1` (stereo not shown) [Example 102, N-(4-{1-[(2-methylcyclopropyl)carbonyl]piperidin-4-yl}phenyl)-1-(pyridin-3-yl)azetidine-3-carboxamide] gave an IC50 of 0.59 nM.
`O=C(Nc1ccc(C2CCN(C(=O)CN3CCOCC3)CC2)cc1)C1CN(c2cccnc2)C1` [Example 103, N-{4-[1-(morpholin-4-ylacetyl)piperidin-4-yl]phenyl}-1-(pyridin-3-yl)azetidine-3-carboxamide] showed a concentration for half-maximal inhibition (IC50) of 1.44 nM.
